Source: patent US20100069409A1, “"NOVEL COMPOUNDS"” (GLAXO GROUP LIMITED, priority 2006, published 2010)

melting point [°C]	Structure (SMILES)
214.2 to 217.5	Cc1c(F)cc(C(=O)NC2CC2)cc1-c1nc(NC(CO)CO)nc2c1ccc(=O)n2-c1c(F)cccc1F [Example 49, N-cyclopropyl-3-(8-(2,6-difluorophenyl)-2-{[2-hydroxy-1-(hydroxymethyl)ethyl]amino}-7-oxo-7,8-dihydropyrido[2,3-d]pyrimidin-4-yl)-5-fluoro-4-methylbenzamide]
144 to 147	CSc1nc(-c2cc(C(=O)N(C)C)ccc2C)c2c(n1)N(c1c(F)cccc1F)C(=O)NC2 [Example 73, 3-[8-(2,6-difluorophenyl)-2-(methylthio)-7-oxo-5,6,7,8-tetrahydropyrimido[4,5-d]pyrimidin-4-yl]-N,N,4-trimethylbenzamide]
